From patent US12534452B2, “N-(1H-imidazol-2-yl)benzamide compound and pharmaceutical composition comprising the same as active ingredient” (KAINOS MEDICINE, INC., priority 2019, dated 2026)
pIC50: −log10 of the molar value.

Molecular target: IRAK4 (Homo sapiens (Human), UniProt Q9NWZ3)
Test: In vitro IRAK4 phosphorylation activity assay
Assay type: biochemical
Conditions: [γ-33P]-ATP, myelin basic protein substrate, 40 minutes at room temperature; categories
Method in brief: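 Radiometric filter-binding assay, no compound–kinase preincubation; 8 mM MOPS pH 7.0, 0.2 mM EDTA, 10 mM Mg acetate, 0.33 mg/mL myelin basic protein substrate, [γ-33P]-ATP. Reaction 40 min at room temperature, stopped with phosphoric acid, scintillation counting; IC50 reported in categories.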

Chain of IRAK4 (Q9NWZ3 whole entry): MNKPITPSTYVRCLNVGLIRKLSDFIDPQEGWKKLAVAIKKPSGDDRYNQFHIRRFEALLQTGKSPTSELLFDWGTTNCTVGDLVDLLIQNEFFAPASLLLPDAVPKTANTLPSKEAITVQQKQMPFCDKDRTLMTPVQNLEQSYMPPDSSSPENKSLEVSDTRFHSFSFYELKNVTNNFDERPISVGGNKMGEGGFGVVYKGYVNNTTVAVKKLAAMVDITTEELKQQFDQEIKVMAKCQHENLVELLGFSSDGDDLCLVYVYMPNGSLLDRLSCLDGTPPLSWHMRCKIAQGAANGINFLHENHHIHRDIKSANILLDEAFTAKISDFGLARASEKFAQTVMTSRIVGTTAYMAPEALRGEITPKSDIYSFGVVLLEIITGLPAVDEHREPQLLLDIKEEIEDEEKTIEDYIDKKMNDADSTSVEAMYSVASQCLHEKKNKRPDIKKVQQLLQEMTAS

Row | pIC50 | Compound
1 | > 7.30 | COC[C@@H]1CCCN1NC(=O)CCCCCc1cn(-c2ccccc2)c(NC(=O)c2cccc(-c3cn[nH]c3)c2)n1 [Example 98, (S)—N-(4-(6-((2-(methoxymethyl)pyrrolidin-1-yl)amino)-6-oxohexyl)-1-phenyl-1H-imidazol-2-yl)-3-(1H-pyrazol-4-yl)benzamide]
2 | > 7.30 | CNC(=O)CCCc1cn(C2CCCCC2)c(NC(=O)c2cccc(-c3cn[nH]c3)c2)n1 [Example 296, N-(1-cyclohexyl-4-(4-(methylamino)-4-oxobutyl)-1H-imidazol-2-yl)-3-(1H-pyrazol-4-yl)benzamide]
3 | < 7.00 | O=C(CCc1cn(-c2ccccc2)c(NC(=O)c2cccc(-c3cn[nH]c3)c2)n1)Nc1cnccn1 [Example 22, N-(4-(3-oxo-3-(pyrazin-2-ylamino)propyl)-1-phenyl-1H-imidazol-2-yl)-3-(1H-pyrazol-4-yl)benzamide]
4 | < 7.00 | O=C(Nc1nc(CCCCCCN2CCCCC2)cn1-c1ccc(F)cc1F)c1cccc(-c2cn[nH]c2)c1 [Example 302, N-(1-(2,4-difluorophenyl)-4-(6-(piperidin-1-yl)hexyl)-1H-imidazol-2-yl)-3-(1H-pyrazol-4-yl)benzamide]
5 | > 7.30 | O=C(Nc1nc(CCCCCC(=O)N2CCCCC2)cn1-c1ccccc1)c1cccc(-c2ccc3[nH]ncc3c2)c1 [Example 237, 3-(1H-indazol-5-yl)-N-(4-(6-oxo-6-(piperidin-1-yl)hexyl)-1-phenyl-1H-imidazol-2-yl)benzamide]
6 | > 7.30 | COC[C@H]1CCCN1C(=O)CCCCc1cn(-c2ccccc2)c(NC(=O)c2cccc(-c3cn[nH]c3)c2)n1 [Example 87, (R)—N-(4-(5-(2-(methoxymethyl)pyrrolidin-1-yl)-5-oxopentyl)-1-phenyl-1H-imidazol-2-yl)-3-(1H-pyrazol-4-yl)benzamide]
7 | > 7.30 | CCN1CCN(C(=O)CCCc2cn(-c3ccccc3)c(NC(=O)c3cccc(-c4cnn(C)c4)c3)n2)CC1 [Example 144, N-(4-(4-(4-ethylpiperazin-1-yl)-4-oxobutyl)-1-phenyl-1H-imidazol-2-yl)-3-(1-methyl-1H-pyrazol-4-yl)benzamide]
8 | > 7.30 | O=C(Nc1nc(CCCCCCO)cn1-c1ccccc1)c1cccc(-c2cn[nH]c2)c1 [Example 121, N-(4-(6-hydroxyhexyl)-1-phenyl-1H-imidazol-2-yl)-3-(1H-pyrazol-4-yl)benzamide]
9 | > 7.30 | Cn1cc(-c2cccc(C(=O)Nc3nc(CCCC(=O)N4CCCC[C@@H]4C(F)(F)F)cn3-c3ccccc3)c2)cn1 [Example 176, (R)-3-(1-methyl-1H-pyrazol-4-yl)-N-(4-(4-oxo-4-(2-(trifluoromethyl)piperidin-1-yl)butyl)-1-phenyl-1H-imidazol-2-yl)benzamide]
10 | 7.00 to 7.30 | C[C@H]1CCCCN1C(=O)CCCCc1cn(-c2ccccc2)c(NC(=O)c2cccc(-c3cn[nH]c3)c2)n1 [Example 82, (S)—N-(4-(5-(2-methylpiperidin-1-yl)-5-oxopentyl)-1-phenyl-1H-imidazol-2-yl)-3-(1H-pyrazol-4-yl)benzamide]
11 | 7.00 to 7.30 | Cn1cc(-c2cccc(C(=O)Nc3nc(CCCC(=O)N4CCN(Cc5ccc(OC(F)(F)F)cc5)CC4)cn3-c3ccccc3)c2)cn1 [Example 173, 3-(1-methyl-1H-pyrazol-4-yl)-N-(4-(4-oxo-4-(4-(4-(trifluoromethoxy)benzyl)piperazin-1-yl)butyl)-1-phenyl-1H-imidazol-2-yl)benzamide]
12 | > 7.30 | O=C(Nc1nc(CCC(=O)N2CCCC2)cn1-c1ccccc1)c1cccc(-c2cn[nH]c2)c1 [Example 28, N-(4-(3-oxo-3-(pyrrolidin-1-yl)propyl)-1-phenyl-1H-imidazol-2-yl)-3-(1H-pyrazol-4-yl)benzamide]
13 | > 7.30 | C[C@@H]1CCC[C@H](C)N1C(=O)CCCCCc1cn(-c2ccccc2)c(NC(=O)c2cccc(-c3cn[nH]c3)c2)n1 [Example 97, N-(4-(6-((2R,6S)-2,6-dimethylpiperidin-1-yl)-6-oxohexyl)-1-phenyl-1H-imidazol-2-yl)-3-(1H-pyrazol-4-yl)benzamide]
14 | > 7.30 | CNC(=O)CCCc1cn(-c2ccc(F)cc2)c(NC(=O)c2cccc(-c3cn[nH]c3)c2)n1 [Example 297, N-(1-(4-fluorophenyl)-4-(4-(methylamino)-4-oxobutyl)-1H-imidazol-2-yl)-3-(1H-pyrazol-4-yl)benzamide]
15 | > 7.30 | COC1CCN(C(=O)CCCc2cn(-c3ccccc3)c(NC(=O)c3cccc(-c4cnn(C)c4)c3)n2)CC1 [Example 177, N-(4-(4-(4-methoxypiperidin-1-yl)-4-oxobutyl)-1-phenyl-1H-imidazol-2-yl)-3-(1-methyl-1H-pyrazol-4-yl)benzamide]
16 | > 7.30 | O=C(Nc1nc(CCCCCCN2CCCCC2)cn1-c1ccccc1)c1cccc(-c2ccc3[nH]ncc3c2)c1 [Example 252, 3-(1H-indazol-5-yl)-N-(1-phenyl-4-(6-(piperidin-1-yl)hexyl)-1H-imidazol-2-yl)benzamide]
17 | > 7.30 | Cn1cc(-c2cccc(C(=O)Nc3nc(CCCCCCN4C(=O)CCC4=O)cn3-c3ccccc3)c2)cn1 [Example 226, N-(4-(6-(2,5-dioxopyrrolidin-1-yl)hexyl)-1-phenyl-1H-imidazol-2-yl)-3-(1-methyl-1H-pyrazol-4-yl)benzamide]
18 | > 7.30 | Cn1cc(-c2cccc(C(=O)Nc3nc(CCCC(=O)NCC(C)(C)O)cn3-c3ccccc3)c2)cn1 [Example 170, N-(4-(4-((2-hydroxy-2-methylpropyl)amino)-4-oxobutyl)-1-phenyl-1H-imidazol-2-yl)-3-(1-methyl-1H-pyrazol-4-yl)benzamide]
19 | > 7.30 | Nc1ccc(-c2cccc(C(=O)Nc3nc(CCCCCCN4CCCC4=O)cn3-c3ccccc3)c2)cn1 [Example 276, 3-(6-aminopyridin-3-yl)-N-(4-(6-(2-oxopyrrolidin-1-yl)hexyl)-1-phenyl-1H-imidazol-2-yl)benzamide]
20 | > 7.30 | COC(=O)CCc1cn(-c2ccccc2)c(NC(=O)c2cccc(-c3cn[nH]c3)c2)n1 [Example 18, methyl 3-(2-(3-(1H-pyrazol-4-yl)benzamido)-1-phenyl-1H-imidazol-4-yl)propanoate]
21 | > 7.30 | COC(=O)CCCc1cn(-c2ccccc2)c(NC(=O)c2cccc(-c3cn[nH]c3)c2)n1 [Example 58, methyl 4-(2-(3-(1H-pyrazol-4-yl)benzamido)-1-phenyl-1H-imidazol-4-yl)butanoate]
22 | > 7.30 | O=C(CCCCc1cn(-c2ccccc2)c(NC(=O)c2cccc(-c3cn[nH]c3)c2)n1)Nc1ccccc1 [Example 76, N-(4-(5-oxo-5-(phenylamino)pentyl)-1-phenyl-1H-imidazol-2-yl)-3-(1H-pyrazol-4-yl)benzamide]
23 | > 7.30 | Cn1cc(-c2cccc(C(=O)Nc3nc(CCCC(=O)N4CCN(S(C)(=O)=O)CC4)cn3-c3ccccc3)c2)cn1 [Example 206, 3-(1-methyl-1H-pyrazol-4-yl)-N-(4-(4-(4-(methylsulfonyl)piperazin-1-yl)-4-oxobutyl)-1-phenyl-1H-imidazol-2-yl)benzamide]
24 | 7.00 to 7.30 | O=C(CCc1cn(-c2ccccc2)c(NC(=O)c2cccc(-c3cn[nH]c3)c2)n1)NN1CCCCC1 [Example 8, N-(4-(3-oxo-3-(piperidin-1-ylamino)propyl)-1-phenyl-1H-imidazol-2-yl)-3-(1H-pyrazol-4-yl)benzamide]
